{"source": "paper PMC2542349", "about": "“Pharmacokinetic and metabolic effects of American ginseng (Panax quinquefolius) in healthy volunteers receiving the HIV protease inhibitor indinavir” (BMC Complementary and Alternative Medicine, 2008)", "key": {"[1]": {"tested_on": "healthy volunteers", "conditions": "cited from earlier work"}, "[2]": {"assay": "clinical", "conditions": "human, plasma, oral"}, "[3]": {"conditions": "for Cmin: GM (95%CI)"}, "[4]": {"tested_on": "healthy volunteers", "assay": "Safety assessment in healthy volunteers", "format": "in vivo, human", "text": "There were no serious adverse events. Three subjects developed transaminitis. In one subject (as previously mentioned), an AST elevation 3 times the upper limit of normal (Grade 2) after 3 days of IDV required study discontinuation. Three subjects were noted to have mild elevations in bilirubin. […] One patient reported an episode of vomiting and one subject reported dyspepsia after dose administration. All laboratory abnormalities and symptoms normalized after discontinuation of the study drugs. With the exception of the Grade 2 transaminites, all adverse events occurred during the co-administration of IDV and AG."}, "[5]": {"tested_on": "healthy volunteers", "assay": "Fasting serum glucose, HOMA-IR and body weight at inpatient visits", "format": "in vivo, human", "procedure": "Body composition, including fat-free mass (FFM), was assessed at baseline using dual x-ray absorptiometry (Hologic-QDR 4500W, Hologic Co, Bedford, MA, intra-subject CV < 2%). BMI was assessed during each inpatient admission and was calculated as the weight in kilograms/height in meters squared.\n(§1) During the final 60 minutes of the insulin clamp procedure, samples were obtained at 10 minutes intervals to determine insulin concentrations. M divided by the average insulin concentration in the final 60 minutes (I), which represents the amount of glucose metabolized per unit of insulin, was used as the primary measure of insulin sensitivity. During the second and third inpatient visits, the morning dose of IDV (and AG for the third inpatient visit) was given immediately prior to the beginning of the insulin clamp procedure. Fasting serum glucose and homeostasis model assessment of insulin resistance (HOMA-IR), a widely used marker of insulin sensitivity, were assessed prior to the insulin clamp procedure at each of the inpatient study visits."}, "[6]": {"tested_on": "healthy volunteers", "assay": "Hyperinsulinemic euglycemic clamp (glucose utilization M, insulin sensitivity M/I)", "format": "in vivo, human", "procedure": "Peripheral sensitivity to glucose was assessed by the hyperinsulinemic euglycemic clamp technique. Subjects were admitted to the GCRC in the afternoon prior to the clamp procedure and maintained on a eucaloric diet (50% carbohydrate, 30% fat, and 20% protein). After an overnight fast, an intravenous catheter was placed in the antecubital vein for infusion of glucose and insulin. A second catheter for blood sampling was inserted in a dorsal vein of the hand in a retrograde fashion. The hand was placed into a 50°C warming box to \"arterialize\" the samples [20]. After baseline blood samples were obtained, a primed, continuous infusion of regular insulin (40 mU/m^2/min) was started, followed by a constant infusion of 20% dextrose at a variable rate, based on 5-minute measurements of blood glucose, in order to maintain blood glucose concentrations at each subject's baseline level ± 5%. Infusion continued for a total of 180 minutes.\nGlucose utilization (M) was calculated as the average glucose infusion rate (milligrams of glucose/kilograms of FFM/minute) during the last 60 minutes of the infusion (i.e. steady state portion). FFM was derived from the baseline evaluation by dual energy X-ray absorptiometry (DXA).\nas §1, with “During the second and third inpatient visits, the morning dose of IDV (and AG for the third inpatient visit) was given immediately prior to the beginning of the insulin clamp procedure.” left out\nWe then multiplied this value by 10^6 for ease of interpretation."}}, "note": "Where “and” joins values, the source holds several entries; their conditions need not be identical. Identical values can stand only once. Like-named read-outs stand apart in the source and are kept apart here."}
{"smiles": "CC(C)(C)NC(=O)[C@@H]1CN(Cc2cccnc2)CCN1C[C@@H](O)C[C@@H](Cc1ccccc1)C(=O)N[C@H]1c2ccccc2C[C@H]1O", "note": "[IDV, Indinavir]", "values": [{"measurement": "decrease in insulin sensitivity", "setting": "[1]; healthy volunteers, IDV 800 mg q 8 hours", "value": 17, "unit": "%"}, {"measurement": "decrease in insulin sensitivity", "setting": "[1]; single dose of 1200 mg", "value": 34, "unit": "%"}, {"measurement": "AUC", "setting": "[2]", "value": "1920 ± 483", "unit": "ng·h/mL"}, {"measurement": "AUC", "setting": "[2]; 800 mg", "value": "2350 ± 389", "unit": "ng·h/mL"}, {"measurement": "Cmax", "setting": "[2]; 800 mg", "value": 5620, "unit": "ng/mL"}, {"measurement": "Tmax", "setting": "[2]; 800 mg", "value": 58.8, "unit": "min"}, {"measurement": "difference in IDV AUC2–3 (IDV alone vs IDV and AG)", "setting": "[3]; 10 subjects, p = 0.22", "value": "430 ± 330", "unit": "ng·h/mL"}, {"measurement": "Cmin", "setting": "[3]; IDV + AG (Day 22), n = 13", "value": "62.78 (39.72–99.24) ng/mL"}, {"measurement": "Cmin", "setting": "[3]; IDV alone (Day 7), n = 13", "value": "61.97 (42.72–89.88) ng/mL"}, {"measurement": "AUC0–8 Day 22/Day 7 Geometric Mean Ratio (90% CI)", "setting": "[3]; IDV with vs without AG, n = 13", "value": "0.89 (0.72–1.08)"}, {"measurement": "Cmax Day 22/Day 7 Geometric Mean Ratio (90% CI)", "setting": "[3]; IDV with vs without AG, n = 13", "value": "1.00 (0.77–1.29)"}, {"measurement": "tmax Day 22/Day 7 Geometric Mean Ratio (90% CI)", "setting": "[3]; IDV with vs without AG, n = 13", "value": "0.75 (0.53–1.06)"}, {"measurement": "tolerability", "setting": "[4]; healthy volunteers", "value": "well tolerated"}, {"measurement": "AST elevation", "setting": "[4]; one subject, Grade 2, after 3 days of IDV, required study discontinuation", "value": "3 times the upper limit of normal"}, {"measurement": "Fasting glucose", "setting": "[5]; before vs after 2 weeks of AG, p = 0.65", "value": "93.0 ± 1.4", "unit": "mg/dL"}, {"measurement": "HOMA-IR", "setting": "[5]; before vs after 2 weeks of AG, p = 0.95", "value": "1.4± 0.25"}, {"measurement": "HOMA-IR", "setting": "[5]; second admission (after 3 days IDV), baseline 1.34 ± 0.32, p = 0.97", "value": "1.34 ± 0.23"}, {"measurement": "Fasting glucose", "setting": "[5]; second admission (after 3 days IDV), baseline 92.4 ± 1.8, p = 0.27", "value": "95.0 ± 2.4", "unit": "mg/dL"}, {"measurement": "average decrease in insulin sensitivity (M/I) compared to baseline", "setting": "[6]; after 3 days of IDV 800 mg q8h, n = 11, p = 0.03", "value": "14.8 ± 5.9% and 15%"}, {"measurement": "insulin sensitivity (M/I), mean", "setting": "[6]; after 3 days of IDV, n = 11, mean ± SEM, baseline 0.113 ± 0.012", "value": "0.096 ± 0.014 mg/kg FFM/min per μU/ml of insulin"}, {"measurement": "average glucose utilization (M)", "setting": "[6]; after 3 days of IDV, n = 11, mean ± SEM, baseline 7.73 ± 0.75, p = 0.005", "value": "6.32 ± 0.78", "unit": "mg/kg FFM/min"}, {"measurement": "M/I divided by the IDV AUC2–3 (insulin sensitivity per unit of plasma IDV)", "setting": "[6]; post hoc, 10 subjects, IDV alone vs IDV + AG, p = 0.03", "value": "60.9 ± 15.4 mg Glucose·10^6/kg FFM/min/μU/ml of insulin/ng·hr/mL IDV"}, {"measurement": "M (multiplied times 10^6) divided by the IDV AUC2–3", "setting": "[6]; post hoc, 10 subjects, IDV alone vs IDV plus AG, p = 0.05", "value": "4240.6 ± 1180.0 mg Glucose·10^6/kg FFM/min/ng·hr/mL IDV"}, {"measurement": "Glucose utilization (M), mean", "setting": "[6]; second (IDV alone) vs third (IDV + AG) clamp, ten subjects, mean ± SEM, p = 0.62", "value": "6.68 ± 0.76", "unit": "mg/kg FFM/min"}, {"measurement": "insulin sensitivity (M/I), mean", "setting": "[6]; second (IDV alone) vs third (IDV + AG) clamp, ten subjects, mean ± SEM, p = 0.72", "value": "0.102 ± 0.013 mg/kg FFM/min per μU/ml of insulin"}]}
